Data on 8 molecules can be found in patent US20130281493A1, “Method for Treating Cancer Harboring a p53 Mutation” (The Trustees of The University of Columbia in the City of …, priority 2010, published 2013).

Each structure is given as a SMILES string.

Series [1] concerns MDA-468 cells. Briefly: 3D culture of MDA-468 breast cancer cells (growth, morphology). The format is cell-based. As for the experimental part:
(§1) Cells were then seeded at a density of 5,000 cells/well in Assay Medium (DMEM/F12+2% Horse Serum+10 μg/ml Insulin+0.5 μg/ml Hydrocortisone [+5 ng/ml EGF for MCF10A cultures]) containing 2% Matrigel.
(§2) Cells were fixed using 2% formaldehyde at room temperature for at least 30 min. […] Primary antibodies were incubated with the cultures for 1-2 hr at room temperature, followed by washing, and addition of fluorescently-conjugated secondary antibodies for 40 min at room temperature. Nuclei were counterstained with DRAQ5 (Cell Signaling #4084) or Propidium Iodide (Sigma #P4170). Confocal microscopy was conducted using an Olympus IX81 confocal microscope and analyzed using Fluoview software.
(§3) Cells were treated on Day 1 or Day 4 of the 3D protocol (as described in the figure legends) and refed every 4 days with fresh drug. […] This range approximates clinically achievable serum concentrations in human patients (Dimitroulakos et al., 1999; Wong et al., 2002), • 6-Fluoromevalonate (200 μM) as previously described (Cuthbert and Lipsky, 1990) and YM-53601, FTI-277 or GTI-2133 at or above their reported IC50 in cells (Lerner et al., 1995; Ugawa et al., 2000; Vasudevan et al., 1999), and with • Fatostatin at either 2 μM or 20 μM as previously described (Kamisuki et al., 2009).

Series [2] has as its system MDA-231 cells. Briefly: 3D culture of MDA-231 breast cancer cells (growth, invasive morphology). The format is cell-based. How it is done:
as §1, §2, §3

For series [3], the system named is MCF10A cells. The series is described as follows: 3D culture of non-malignant MCF10A mammary epithelial cells (acinar morphology, luminal clearance). The settings on record: 1 mM, 8 days. It counts as cell-based, human. How it is done:
Cells were fixed using 2% formaldehyde at room temperature for at least 30 min. […] Primary antibodies were incubated with the cultures for 1-2 hr at room temperature, followed by washing, and addition of fluorescently-conjugated secondary antibodies for 40 min at room temperature. Nuclei were counterstained with DRAQ5 (Cell Signaling #4084) or Propidium Iodide (Sigma #P4170). Confocal microscopy was conducted using an Olympus IX81 confocal microscope and analyzed using Fluoview software. Cells were treated on Day 1 or Day 4 of the 3D protocol (as described in the figure legends) and refed every 4 days with fresh drug. […] This range approximates clinically achievable serum concentrations in human patients (Dimitroulakos et al., 1999; Wong et al., 2002), • 6-Fluoromevalonate (200 μM) as previously described (Cuthbert and Lipsky, 1990) and YM-53601, FTI-277 or GTI-2133 at or above their reported IC50 in cells (Lerner et al., 1995; Ugawa et al., 2000; Vasudevan et al., 1999), and with • Fatostatin at either 2 μM or 20 μM as previously described (Kamisuki et al., 2009).

The test system of series [4] is MDA-468.shp53 cells. The series is described as follows: Add-back in 3D culture of MDA-468.shp53 cells depleted of mutant p53 (+DOX). The settings on record: MVA and MVAP added together, 1 mM each, from Day 1, 8 days. It counts as cell-based.
Experimental: (§4) Three-dimensional culture was carried out as previously described (Debnath et al., 2003). Briefly, 8-well chamber slides were lined with 50 μl growth factor reduced Matrigel (BD Biosciences). […] Cells were refed with Assay Medium containing 2% Matrigel every 4 days. For RNA/protein analysis from 3D cultures, 35 mm plates were lined with 500 μl Matrigel and cells were seeded at a density of 225,000 cells/plate in Assay Medium+2% Matrigel. Cells were harvested using Cell Recovery Solution (BD Biosciences) according to the manufacturer's instructions.
Series [5] addresses farnesyltransferase (Homo sapiens, UniProt P49354+P49356). The settings on record: whole cells; Lerner et al., 1995; cited from earlier work.
The target of series [6] is geranylgeranyl transferase (Homo sapiens, UniProt P49354+P53609). The settings on record: low micromolar concentrations; Lerner et al., 1995; cited from earlier work.
Series [7] relates to squalene synthesis. The settings on record: low micromolar concentrations; Lerner et al., 1995; cited from earlier work.
In series [8] the target is T1, squalene synthase (Homo sapiens, UniProt P37268).
T1 sequence (P37268 1-417): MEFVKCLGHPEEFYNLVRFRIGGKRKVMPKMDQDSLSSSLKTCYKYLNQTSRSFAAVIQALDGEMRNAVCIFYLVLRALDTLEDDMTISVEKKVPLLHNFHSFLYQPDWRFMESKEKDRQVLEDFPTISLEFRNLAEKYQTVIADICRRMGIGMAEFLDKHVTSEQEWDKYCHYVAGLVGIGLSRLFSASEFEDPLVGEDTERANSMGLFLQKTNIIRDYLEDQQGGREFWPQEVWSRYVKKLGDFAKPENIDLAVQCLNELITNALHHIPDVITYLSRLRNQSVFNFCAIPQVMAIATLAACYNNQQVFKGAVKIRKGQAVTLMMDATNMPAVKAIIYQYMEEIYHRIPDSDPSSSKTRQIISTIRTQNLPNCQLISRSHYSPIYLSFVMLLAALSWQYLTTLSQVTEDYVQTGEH
The note with it: Ugawa et al., 2000; cited from earlier work.

The subject of series [9] is MDA-231 cells. The series is described as follows: MDA-231 subcutaneous tumor growth in NOD-SCID mice. It counts as in vivo. The note with it: 200 mg/kg/day, after 21 days of treatment.
Experimental: 2×10^6 MDA-231 cells were injected subcutaneously into 8 week-old NOD-SCID mice. […] Tumor measurements were performed weekly using calipers. After 21 days of treatment, mice were sacrificed and tumors were extracted and weighed. Tumor volumes as a function of time (left) and tumor weights at day 21 (right) are presented. *denotes p<0.01, **denotes p<0.001 using a two-tailed students t-test. […] 2×10^6 MDA-231 cells were injected subcutaneously into 8 week-old NOD-SCID mice. […] Tumor measurements were performed weekly using calipers. After 21 days of treatment, mice were sacrificed and tumors were extracted and weighed. Tumor volumes as a function of time (left) and tumor weights at day 21 (right) are presented. *denotes p<0.01, **denotes p<0.001 using a two-tailed students t-test.
Series [10] is described as follows: Serum level at the dose used in the mouse experiments. The format is in vivo. The settings on record: mice, 200 mg/kg/day.
Series [11] relates to MDA-231.shp53 cells. The settings on record: 25 μM from Day 1, 8 days, +DOX.
Experimental: as §4

As for `C[C@@](O)(CCO)CC(=O)O` (racemic) [mevalonic acid], the “rescue of the phenotypic effects of statin treatment in 3D culture” value was “blocked many of the phenotypic effects of statins” in [1] (MDA-468 treated with Simvastatin 1 μM, supplemented) and “blocked many of the phenotypic effects of statins” in series [2] (MDA-231 treated with Simvastatin 1 μM, supplemented). Moreover, in series [3], the “luminal clearance in MCF10A cells” value is listed as “sufficient to block luminal clearance”. For the same molecule, the “effect on phenotypic reversion caused by mutant p53 knockdown” value in series [4] is on record as “dramatically inhibit”.

Consider `COC(=O)[C@H](CCSC)NC(=O)c1ccc(NC[C@@H](N)CS)cc1-c1ccccc1` [FTI-277], for which the “effect on growth of MDA-231 cells in 3D culture” value (“effect on growth” for short) in series [2] (1 uM, added Day 1, 8 days) is on record as “only a mild effect”. For the same molecule, in [5], the “concentrations that block farnesylation via inhibition of farnesyltransferase” value is on record as “nanomolar”. Also, the “effect on geranylgeranyl transferase” value in series [6] was “no effect”. Further, the “effect on squalene synthesis” value in [7] is listed as “no effect”.

`CC[C@H](C)C(=O)O[C@H]1CCC=C2C=C[C@H](C)[C@H](CC[C@@H]3C[C@@H](O)CC(=O)O3)[C@H]21` [Mevastatin]: in [1] (1 μM, added Day 4, 13 days), the “3D morphology of MDA-468 cells” value is on record as “profoundly affects”. Also, in series [2] (1 μM, added Day 4, 13 days), the “3D morphology of MDA-231 cells” value is “profoundly affects”.

Turning to `O=C(O)CC(O)(CF)CCO` (stereo not drawn) [6-fluoromevalonate, 6-Fluoromevalonate], the “phenotypic effects in 3D culture compared with HMG-CoA reductase inhibition by statins” value in series [1] (MDA-468, 200 μM, added Day 1, 8 days) is given as “remarkably similar phenotypic effects”; in series [2] (MDA-231, 200 μM, added Day 1, 8 days), “remarkably similar phenotypic effects”.

As for `CC(C)C[C@H](NC(=O)c1ccc(NCc2cnc[nH]2)cc1-c1cccc2ccccc12)C(=O)O` [GTI-2133], in [2] (1 uM, added Day 1, 8 days), the “effect on growth” value was “profound impact” and the “effect on invasive morphology of MDA-231 cells in 3D culture” value was “profound impact”.

Regarding `F/C(COc1ccc2c(c1)[nH]c1ccccc12)=C1/CN2CCC1CC2` [YM-53601], in series [2] (1 uM, added Day 1, 8 days), the “effect on growth” value is on record as “only a mild effect”. For the same molecule, the “killing of cancer cells in 3D culture” value in series [2] (10 uM) is “killed all the cancer cells”. In [8], the “concentrations that inhibit squalene synthase” value was “submicromolar”.

Turning to `CCC(C)(C)C(=O)O[C@H]1C[C@@H](C)C=C2C=C[C@H](C)[C@H](CC[C@@H]3C[C@@H](O)CC(=O)O3)[C@H]21` [Simvastatin], the “reduction of tumor size” value in series [9] was “about 40%”. Further, the serum levels result in series [10] is “about 100 micromolar”.

Regarding `CC(C)=CCC/C(C)=C/CC/C(C)=C/CC/C(C)=C/COP(=O)(O)OP(=O)(O)O` [Geranylgeranyl pyrophosphate], the “rescue of the morphological effects of HMG-CoA reductase inhibition” value in series [2] (MDA-231 with Simvastatin 1 μM, 25 μM GGPP, 8 days) is “partially rescue”. Moreover, the “rescue of the morphological effects of mutant p53 depletion” value in series [11] was “partially rescue”.
